{"source": "paper PMC3119665", "about": "“A New Drug Design Targeting the Adenosinergic System for Huntington's Disease” (PLoS ONE, 2011)", "key": {"[1]": {"target": "T1, A2B adenosine receptor (Homo sapiens, UniProt P29275)", "T1 construct": "MDS Pharma Services Taiwan", "T1 sequence (P29275 1-332)": "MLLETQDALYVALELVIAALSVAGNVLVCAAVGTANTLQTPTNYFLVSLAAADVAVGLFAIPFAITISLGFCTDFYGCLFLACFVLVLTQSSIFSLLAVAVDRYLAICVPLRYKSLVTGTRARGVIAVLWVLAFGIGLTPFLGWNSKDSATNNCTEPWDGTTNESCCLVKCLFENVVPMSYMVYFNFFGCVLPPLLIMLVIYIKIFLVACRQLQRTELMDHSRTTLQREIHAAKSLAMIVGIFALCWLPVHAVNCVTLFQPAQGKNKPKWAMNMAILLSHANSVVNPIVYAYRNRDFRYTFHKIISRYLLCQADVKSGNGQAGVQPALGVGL", "test": "Radioligand binding assay"}, "[2]": {"target": "T2, Adrenergic α 1D (Homo sapiens, UniProt P25100)", "T2 construct": "purchased MDS Pharma Services Taiwan", "test": "Radioligand binding panel (Table S1)", "details": "10 μM T1-11, n 2"}, "[3]": {"target": "T3, Adrenomedullin AM2 (Homo sapiens, UniProt O60896+Q16602)", "T3 construct": "purchased MDS Pharma Services Taiwan", "T3 sequence (Q16602 23-461)": "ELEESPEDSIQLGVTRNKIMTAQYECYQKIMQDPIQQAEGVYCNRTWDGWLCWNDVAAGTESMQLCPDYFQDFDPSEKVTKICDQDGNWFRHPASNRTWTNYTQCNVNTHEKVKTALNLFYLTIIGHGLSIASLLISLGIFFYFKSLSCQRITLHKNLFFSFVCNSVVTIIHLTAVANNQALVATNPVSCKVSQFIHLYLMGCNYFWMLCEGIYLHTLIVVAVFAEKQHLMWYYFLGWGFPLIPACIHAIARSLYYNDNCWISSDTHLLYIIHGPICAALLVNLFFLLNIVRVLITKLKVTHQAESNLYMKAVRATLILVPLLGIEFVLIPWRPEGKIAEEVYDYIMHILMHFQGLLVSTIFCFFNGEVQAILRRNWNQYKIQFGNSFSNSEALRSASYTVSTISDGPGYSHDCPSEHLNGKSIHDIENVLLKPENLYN", "T3 sequence (O60896 24-148 partner)": "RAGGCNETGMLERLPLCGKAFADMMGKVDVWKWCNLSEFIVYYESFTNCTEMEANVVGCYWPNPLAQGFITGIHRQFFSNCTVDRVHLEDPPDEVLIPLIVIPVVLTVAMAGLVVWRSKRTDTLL", "test": "Radioligand binding panel (Table S1)", "details": "10 μM T1-11, n 2"}, "[4]": {"tested_on": "Calcium Channel L-Type, Phenylalkylamin.", "test": "Radioligand binding panel (Table S1)", "parameters": "species or system rat", "details": "10 μM T1-11, n 2"}, "[5]": {"target": "T4, Chemokine CXCR2 (IL-8RB) (Homo sapiens, UniProt P25025)", "T4 construct": "purchased MDS Pharma Services Taiwan", "test": "Radioligand binding panel (Table S1)", "details": "10 μM T1-11, n 2"}, "[6]": {"target": "T5, Estrogen ERα (Homo sapiens, UniProt P03372)", "T5 construct": "purchased MDS Pharma Services Taiwan", "test": "Radioligand binding panel (Table S1)", "details": "10 μM T1-11, n 2"}, "[7]": {"tested_on": "GABAA, Non-Selective", "test": "Radioligand binding panel (Table S1)", "parameters": "species or system rat", "details": "10 μM T1-11, n 2"}, "[8]": {"tested_on": "Gabapentin", "test": "Radioligand binding panel (Table S1)", "parameters": "species or system rat", "details": "10 μM T1-11, n 2"}, "[9]": {"tested_on": "Glutamate, Kainate", "test": "Radioligand binding panel (Table S1)", "parameters": "species or system rat", "details": "10 μM T1-11, n 2"}, "[10]": {"tested_on": "Glutamate, NMDA, Agonism", "test": "Radioligand binding panel (Table S1)", "parameters": "species or system rat", "details": "10 μM T1-11, n 2"}, "[11]": {"tested_on": "Glycine, Strychnine-Sensitive", "test": "Radioligand binding panel (Table S1)", "parameters": "species or system rat", "details": "10 μM T1-11, n 2"}, "[12]": {"target": "T6, Growth Hormone, Secretagogue (GHS, Ghrelin) (Homo sapiens, UniProt Q92847)", "T6 construct": "purchased MDS Pharma Services Taiwan", "test": "Radioligand binding panel (Table S1)", "details": "10 μM T1-11, n 2"}, "[13]": {"target": "T7, Histamine H2 (Homo sapiens, UniProt P25021)", "T7 construct": "purchased MDS Pharma Services Taiwan", "test": "Radioligand binding panel (Table S1)", "details": "10 μM T1-11, n 2"}, "[14]": {"target": "T8, Neuropeptide Y Y1 (Homo sapiens, UniProt P25929)", "T8 construct": "purchased MDS Pharma Services Taiwan", "test": "Radioligand binding panel (Table S1)", "details": "10 μM T1-11, n 2"}, "[15]": {"target": "T9, Neurotensin NT 1 (Homo sapiens, UniProt P30989)", "T9 construct": "purchased MDS Pharma Services Taiwan", "test": "Radioligand binding panel (Table S1)", "details": "10 μM T1-11, n 2"}, "[16]": {"target": "T10, N-Formyl Peptide Receptor, FPR1 (Homo sapiens, UniProt P21462)", "T10 construct": "purchased MDS Pharma Services Taiwan", "test": "Radioligand binding panel (Table S1)", "details": "10 μM T1-11, n 2"}, "[17]": {"tested_on": "Nicotinic Acetylcholine", "test": "Radioligand binding panel (Table S1)", "parameters": "species or system human", "details": "10 μM T1-11, n 2"}, "[18]": {"tested_on": "Opiate, Non-Selective", "test": "Radioligand binding panel (Table S1)", "parameters": "species or system rat", "details": "10 μM T1-11, n 2"}, "[19]": {"target": "T11, Phosphodiesterase PDE10A1 (Homo sapiens, UniProt Q9Y233)", "T11 construct": "purchased MDS Pharma Services Taiwan", "T11 sequence (Q9Y233 1-779 isoform Q9Y233-1)": "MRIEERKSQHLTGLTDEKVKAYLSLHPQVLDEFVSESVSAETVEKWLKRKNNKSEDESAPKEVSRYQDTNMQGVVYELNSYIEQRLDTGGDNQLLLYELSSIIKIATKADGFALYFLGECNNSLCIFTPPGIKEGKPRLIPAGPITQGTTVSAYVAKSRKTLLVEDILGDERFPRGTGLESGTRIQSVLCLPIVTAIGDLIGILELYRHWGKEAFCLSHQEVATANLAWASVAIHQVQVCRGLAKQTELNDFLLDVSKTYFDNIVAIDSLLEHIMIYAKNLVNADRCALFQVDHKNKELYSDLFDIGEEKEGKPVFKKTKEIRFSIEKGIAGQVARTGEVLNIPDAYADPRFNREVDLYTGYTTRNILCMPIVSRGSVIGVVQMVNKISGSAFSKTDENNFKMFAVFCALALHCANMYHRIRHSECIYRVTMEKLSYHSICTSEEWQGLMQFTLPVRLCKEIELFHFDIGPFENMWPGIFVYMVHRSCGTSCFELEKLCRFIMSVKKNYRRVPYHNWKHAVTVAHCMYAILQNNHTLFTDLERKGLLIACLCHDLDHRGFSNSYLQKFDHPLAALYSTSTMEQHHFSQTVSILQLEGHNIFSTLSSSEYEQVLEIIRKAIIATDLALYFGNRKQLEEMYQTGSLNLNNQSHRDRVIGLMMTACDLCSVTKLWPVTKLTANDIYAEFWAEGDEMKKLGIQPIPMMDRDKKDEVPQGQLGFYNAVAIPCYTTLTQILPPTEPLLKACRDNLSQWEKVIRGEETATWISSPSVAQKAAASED", "test": "Radioligand binding panel (Table S1)", "details": "10 μM T1-11, n 2"}, "[20]": {"tested_on": "Phosphodiesterase PDE6", "test": "Radioligand binding panel (Table S1)", "parameters": "species or system human", "details": "10 μM T1-11, n 2"}, "[21]": {"target": "T12, Prostanoid EP4 (Homo sapiens, UniProt P35408)", "T12 construct": "purchased MDS Pharma Services Taiwan", "test": "Radioligand binding panel (Table S1)", "details": "10 μM T1-11, n 2"}, "[22]": {"tested_on": "Rolipram", "test": "Radioligand binding panel (Table S1)", "parameters": "species or system rat", "details": "10 μM T1-11, n 2"}, "[23]": {"target": "T13, Ryanodine RyR3 (Rattus norvegicus, UniProt A0ABK0LPH6)", "T13 construct": "purchased MDS Pharma Services Taiwan", "test": "Radioligand binding panel (Table S1)", "details": "10 μM T1-11, n 2"}, "[24]": {"target": "T14, Serotonin (5-Hydroxytryptamine) 5-HT1B (Rattus norvegicus, UniProt P28564)", "T14 construct": "purchased MDS Pharma Services Taiwan", "test": "Radioligand binding panel (Table S1)", "details": "10 μM T1-11, n 2"}, "[25]": {"tested_on": "Serotonin (5-Hydroxytryptamine) 5-HT2, Non-Selective", "test": "Radioligand binding panel (Table S1)", "parameters": "species or system rat", "details": "10 μM T1-11, n 2"}, "[26]": {"target": "T15, Somatostatin sst1 (Homo sapiens, UniProt P30872)", "T15 construct": "purchased MDS Pharma Services Taiwan", "test": "Radioligand binding panel (Table S1)", "details": "10 μM T1-11, n 2"}, "[27]": {"tested_on": "Transforming Growth Factor-β (TGF-β)", "test": "Radioligand binding panel (Table S1)", "parameters": "species or system mouse", "details": "10 μM T1-11, n 2"}, "[28]": {"tested_on": "Tumor Necrosis Factor (TNF), Non-Selective", "test": "Radioligand binding panel (Table S1)", "parameters": "species or system human", "details": "10 μM T1-11, n 2"}, "[29]": {"target": "T16, Urotensin II (Homo sapiens, UniProt Q9UKP6)", "T16 construct": "purchased MDS Pharma Services Taiwan", "test": "Radioligand binding panel (Table S1)", "details": "10 μM T1-11, n 2"}, "[30]": {"test": "T1-11 level in the brain after intraperitoneal injection", "type": "in vivo, mice", "details": "mouse, ip, 5 mg/kg, 30 min after the intraperitoneal injection, n = 4, mean ± s.e.m., read-out: T1-11 detected in the brain"}, "[31]": {"tested_on": "striatal adenosine", "test": "In vivo brain dialysis and adenosine measurement", "parameters": "species or system mice", "details": "T1-11 100 µM perfused through the dialysis probe", "protocol": "The level of adenosine in the brain was determined using microdialysis as previously described, [73]. In brief, concentrated dialysis probes with 4-mm dialysis membranes (CMA, Stockholm, Sweden) were used to monitor the extracellular adenosine in the striatum of rats. After inducing anesthesia with chloral hydrate ([…], IP), rats were implanted with the probe, and the coordinates for implantation were AP +1.0 mm, LM +2.8 mm, and VD −6.5 mm. Ringer's solution (140 mM NaCl, 1.2 mM CaCl2, 3.0 mM KCl, 1.0 mM MgCl2, and 0.04 mM ascorbic acid) was continuously perfused (0.5 µl/min) via probes throughout the experiments. After implantation and perfusion for 1.5 h, the perfusate was collected for 1 h as a baseline and then Ringer's solution containing T1-11 (100 µM) was perfused for another 1 h. The perfusate was analyzed by high-performance liquid chromatography (HPLC; Agilent 1100 series, Germany) coupled with a photo diode array detector (Agilent G1315B,) at 260 nm. Separations were obtained with a reversed-phase column (Cosmosil 5C18-AR-II, 250×4.6 mm, Kyoto, Japan) eluted at a flow rate of 1.0 ml/min with a linear solvent gradient elution system composed of eluents A and B (A: 0.0085% H3PO4 in H2O; B: 100% acetonitrile) according to the following profile: 0∼15 min, 100%∼90% A, 0%∼10% B."}, "[32]": {"details": "n.s. = not significant, no significant binding at 10 µM"}}}
{"smiles": "OC[C@H]1O[C@@H](n2cnc3c(NCc4ccc(O)cc4)ncnc32)[C@H](O)[C@@H]1O", "note": "[T1-11, N ^6-(4-hydroxybenzyl)adenine riboside]", "values": [{"measurement": "inhibition at 10 µM", "setting": "[1]; 10 μM T1-11, n 2", "value": 0, "unit": "%"}, {"measurement": "IC50", "setting": "[1]; [32]", "value": "n.s."}, {"measurement": "Ki", "setting": "[1]; [32]", "value": "n.s."}, {"measurement": "inhibition at 10 µM", "setting": "[2]", "value": 8, "unit": "%"}, {"measurement": "inhibition at 10 µM", "setting": "[3]", "value": 9, "unit": "%"}, {"measurement": "% Inhibition", "setting": "[4]", "value": -7, "unit": "%"}, {"measurement": "inhibition at 10 µM", "setting": "[5]", "value": 0, "unit": "%"}, {"measurement": "inhibition at 10 µM", "setting": "[6]", "value": 32, "unit": "%"}, {"measurement": "% Inhibition", "setting": "[7]", "value": 5, "unit": "%"}, {"measurement": "% Inhibition", "setting": "[8]", "value": 8, "unit": "%"}, {"measurement": "% Inhibition", "setting": "[9]", "value": 11, "unit": "%"}, {"measurement": "% Inhibition", "setting": "[10]", "value": 10, "unit": "%"}, {"measurement": "% Inhibition", "setting": "[11]", "value": 10, "unit": "%"}, {"measurement": "inhibition at 10 µM", "setting": "[12]", "value": -4, "unit": "%"}, {"measurement": "inhibition at 10 µM", "setting": "[13]", "value": -10, "unit": "%"}, {"measurement": "inhibition at 10 µM", "setting": "[14]", "value": 6, "unit": "%"}, {"measurement": "inhibition at 10 µM", "setting": "[15]", "value": 11, "unit": "%"}, {"measurement": "inhibition at 10 µM", "setting": "[16]", "value": 5, "unit": "%"}, {"measurement": "% Inhibition", "setting": "[17]", "value": 6, "unit": "%"}, {"measurement": "% Inhibition", "setting": "[18]", "value": -13, "unit": "%"}, {"measurement": "inhibition at 10 µM", "setting": "[19]", "value": 1, "unit": "%"}, {"measurement": "% Inhibition", "setting": "[20]", "value": 21, "unit": "%"}, {"measurement": "inhibition at 10 µM", "setting": "[21]", "value": -6, "unit": "%"}, {"measurement": "% Inhibition", "setting": "[22]", "value": -6, "unit": "%"}, {"measurement": "inhibition at 10 µM", "setting": "[23]", "value": -1, "unit": "%"}, {"measurement": "inhibition at 10 µM", "setting": "[24]", "value": 3, "unit": "%"}, {"measurement": "% Inhibition", "setting": "[25]", "value": 15, "unit": "%"}, {"measurement": "inhibition at 10 µM", "setting": "[26]", "value": -3, "unit": "%"}, {"measurement": "% Inhibition", "setting": "[27]", "value": -1, "unit": "%"}, {"measurement": "% Inhibition", "setting": "[28]", "value": -2, "unit": "%"}, {"measurement": "inhibition at 10 µM", "setting": "[29]", "value": 6, "unit": "%"}, {"measurement": "concentration at 30 min", "setting": "[30]", "value": "0.12 ± 0.01", "unit": "ng/g"}, {"measurement": "Level of striatal adenosine (microdialysis)", "setting": "[31]", "value": "significantly enhanced the level of striatal adenosine"}]}
